# Reference: US20240299566A1, “POLY-ARGININE DERIVATIVES FOR ENHANCING BRAIN-DERIVED GROWTH FACTOR TO MITIGATE NEUROLOGICAL DISORDERS” (priority 2021, published 2024)
# Entries after “also recorded” stand apart in the source; their conditions may differ.
# Legend:
# [1] = system: SH-SY5Y cells transfected with HA-TrkB; assay: BDNF-stimulated TrkB signaling, western blot with phospho-specific antibodies; type: cell-based; conditions: 1 μM, FIG. 1D
# Protocol: FIG. 1A depicts western blots probed with phospho-specific antibodies against p-MTOR, p-Erk and p-S6 from SHSY5Y cells transfected with TrkB and stimulated with 30 ng/ml BDNF. Blots depict expression before (0′), or 15 or 60 minutes (15′ and 60′) after BDNF stimulation.
# SH-SY5Y cells were transfected with HA-TrkB. Following transfection, cells were starved in MEM for 3 hours. In the last 90 minutes of starvation, cells were treated with compounds of Formula (IV) or CN-2097 (shown below) at 1 μM and 5 μM. In the last hour of starvation, cells were stimulated with BDNF. Western blots probed with phospho-specific antibodies against p-MTOR, p-Erk and p-S6 (FIG. 1A).
# [2] = system: Angelman syndrome (AS) mice; assay: Hippocampal LTP (field EPSP slopes, CA1) in Angelman syndrome mice after IP injection; type: in vivo; conditions: for LTP (field EPSP slopes, CA1 region of hippocampus): IP, AS mice
# Protocol: Field EPSP slopes were recorded in the CA1 region of the hippocampus.
# Electrophysiological recordings and data analysis were performed as described in Cao et al., 2013 (Impairment of TrkB-PSD-95 Signaling in Angelman Syndrome. PLoS Biol 11, e1001478 (2013). Coronal brain slices (350 μm) were maintained in an interface chamber containing oxygenated artificial cerebral spinal fluid (ACSF) for at least 1 h before use. Slices were transferred to a submersion recording chamber perfused with oxygenated ACSF at 2 ml/min. Extracellular postsynaptic field potentials (fEPSPs) were performed by placing electrodes (borosilicate glass, resistance <1 MΩ) in the CA1 stratum radiatum and synaptic responses elicited by stimulation of the Schaffer Collaterals using concentric bipolar stimulation electrodes and recorded using an AxoClamp2B amplifier (Axon instruments) and EX1 differential amplifier (Dagan), and digitized at 10 kHz. Data were acquired using Igor Pro (Wave Metrics) and Neuromatic (neuromatic.thinkrandom.com). LTP was induced by high frequency stimulation (2×HFS for is at 100 Hz separated by 20 s) of Schaffer collateral afferents and LTP values are expressed as percentage of baseline±SEM. Paired two-tailed t-tests were used for statistical analysis.
# [3] = system: repeated corticosterone-injected mice; assay: Forced Swim Test in repeated corticosterone-injected mice; type: in vivo; conditions: single i.v. injection 1 mg/kg, day 7 after injection
# Excerpt: FIG. 3A is a scatter plot showing immobility time of control mice or depressed mice during a Forced Swim Test, 7 days after injection of vehicle or Compounds of Formula (IV), where *P<0.001 vs. control mice.
# (§1) Preclinical identification of fast-onset antidepressants requires animal models that can accurately predict the delay to therapeutic onset. […] This has led to the approval of SPRAVATO® (esketamine), a ketamine-derived drug which is the first antidepressant with a novel mechanism of action approved in decades. The neurobiological changes believed to underlie depressive symptomatology have been reliably characterized using exogenous corticosterone (CORT) administration e.g. dendritic atrophy in hippocampal pyramidal cells with loss of CA3 and CA1 apical dendrites. […] Mice then received a single injection of compounds of Formula (IV) (1 mg/kg) or Vehicle (0.9% NaCl). Day 7 after injection of compounds of Formula (IV), immobility times in the FST and TST were tested as described. #P<0.001 vs. control mice.
# [4] = system: repeated corticosterone-injected mice; assay: Tail Suspension Test in repeated corticosterone-injected mice; type: in vivo; conditions: single i.v. injection 1 mg/kg, day 7 after injection
# Excerpt: FIG. 3B is a scatter plot showing immobility time of control mice or depressed mice during a Tail Suspension Test, 7 days after injection of vehicle or Compounds of Formula (IV), *P<0.001 vs. control mice.
# as §1
# [5] = system: IL-1β; assay: Inflammatory cytokine expression in CORT behavioral model of depression; type: in vivo, mice; conditions: acute injection, FIG. 4A
# Excerpt: A major breakthrough in our understanding of the mechanistic basis for depression is the “inflammatory hypothesis”.
# [6] = system: microglia; assay: Microglia morphology in CORT mouse model of depression; type: in vivo, mice; conditions: acute injection, FIG. 4C
# Excerpt: Microglial cells are capable of influencing complex moods, synaptic plasticity, neurogenesis, and memory. […] Classically activated, pro-inflammatory microglia phenotypes (termed M1-like), often release inflammatory mediators that result in severely injured tissue. Alternatively activated, anti-inflammatory microglial phenotypes (termed M2-like) are neuroprotective in function and promote the survival of new neurons. In a healthy brain, most microglial cells are in a resting state. The morphology of resting microglia is poly-branched with many fine branches and a smaller cytoplasm, compared to active microglia that display an increased soma size and more irregular shape of their cell body. Activation of microglia results in the release of pro-inflammatory factors, namely IL-1β, TNFα and IL-6.
# [7] = system: ischemic episode; assay: Proposed treatment of patient with ischemia; type: in vivo, human; conditions: 50 mg/Kg i.v. within 2 hours of onset; outcome within 48 hours
# Protocol: A person presents with an ischemic episode resulting sudden numbness the face, and left arm, confusion, and trouble speaking. […] Doses of from about 1 to about 100 mg/Kg will be used.
smiles,measurement,setting,value
CC(C)C(NC(=O)C1CCC(=O)NCCC(=O)NCCCCC(NC(=O)C(CCC(N)=O)NC(=O)C(NC(=O)C(Cc2c[nH]c3ccccc23)NC(=O)C2CCCN2C(=O)C2CCCN2C(=O)C(Cc2ccccc2)NC(=O)C(CO)NC(=O)CNC(=O)C(N)CSSCC(N)C(=O)NC(CCCNC(=N)N)C(=O)NC(CCCNC(=N)N)C(=O)NC(CCCNC(=N)N)C(=O)NC(CCCNC(=N)N)C(=O)NC(CCCNC(=N)N)C(=O)NC(CCCNC(=N)N)C(=O)NC(CCCNC(=N)N)C(N)=O)C(C)C)C(=O)NC(C(C)O)C(=O)N1)C(=O)O (centres unmarked) [Formula (IV)],p-S6 activity,[1]; BDNF stimulation,enhanced p-S6 activity
same,"dose enhancing p-S6 activity, fold lower compared to CN2097",[1],5 fold
same,"restoration of hippocampal LTP, dose compared to CN2097","[2]; Angelman mouse model, FIG. 2A-2C",restored hippocampal LTP in an Angelman mouse model at a significantly lower dose as compared to CN2097
same,"LTP (field EPSP slopes, CA1 region of hippocampus)",[2]; 0.5 mg/kg,resulted in LTP; also recorded: LTP was observed
same,"LTP (field EPSP slopes, CA1 region of hippocampus)",[2]; 1 mg/kg,LTP was observed
same,"LTP (field EPSP slopes, CA1 region of hippocampus)",[2]; 2 mg/kg,LTP was observed
same,immobility time in Forced Swim Test,[3],reduced the duration of immobility time
same,immobility time in Tail Suspension Test,[4],reduced the duration of immobility time
same,IL-1β expression,[5],blocks the increased expression of IL-1β
same,microglia phenotype,[6],switches microglia from an active form (CORT depression) to the resting phenotype
same,patient outcome after ischemic episode,[7],recovers without significant brain damage
